Converted amounts (≈) assume the structure as drawn.
test system: M. tuberculosis H37Rv growth inhibition; test: Mycobacterium tuberculosis H37Rv growth inhibition, putative kinase inhibitor library, confirmatory dose response (AID 2842);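 further: bacteria incubated one week before Alamar blue readout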

SMILES | IC90
Cc1ccc(-c2nnc(NC(=O)c3ccc4c(c3)CCCC4)o2)c(C)c1 | 36.9 µg/mL (≈ 106 µM)
O=C(CSc1nnc(-c2ccncc2)o1)N1CCCCC1 | 14.2 µg/mL (≈ 46.7 µM)
Cc1ccc2sc(N(CCCn3ccnc3)C(=O)COc3ccccc3)nc2c1C | 5.39 µg/mL (≈ 12.8 µM)
O=C(/C=C/c1ccc(-c2ccccc2[N+](=O)[O-])o1)c1cccs1 | 13 µg/mL (≈ 39.9 µM)
O=C(Nc1nnc(-c2ccc3c(c2)CCCC3)o1)c1ccccc1 | 7.25 µg/mL (≈ 22.7 µM)
COc1ccccc1-c1cnn2c(Nc3ccc(C)c(C)c3)cc(C)nc12 | 14.4 µg/mL (≈ 40.3 µM)
Cc1ccc(Nc2nc(Nc3cccc(F)c3)nc(N3CCOCC3)n2)cc1C | 13.5 µg/mL (≈ 34.2 µM)
O=C(/C=C/c1cccs1)Nc1nnc(-c2ccc3c(c2)OCCO3)o1 | 37 µg/mL (≈ 104 µM)
COc1cccc2sc(NNC(=O)c3cc(=O)c4ccccc4o3)nc12 | 25.5 µg/mL (≈ 69.5 µM)
CCOc1cccc2sc(N3CCc4ccccc4C3)nc12 | 15.3 µg/mL (≈ 49.2 µM)
O=C(/C=C/c1ccccc1)Nc1nc2c(s1)COc1ccccc1-2 | 6.8 µg/mL (≈ 20.3 µM)
O=C(Nc1nnc(C2=COCCO2)o1)c1ccc(Cc2ccccc2)cc1 | 28.1 µg/mL (≈ 77.4 µM)
O=C(Nc1nnc(-c2ccc3c(c2)OCCO3)o1)c1ccccc1Oc1ccccc1 | 3.77 µg/mL (≈ 9.08 µM)
O=C(Nc1nnc(-c2cc(Cl)ccc2Cl)o1)c1ccc(S(=O)(=O)N2CCCCC2)cc1 | 11.7 µg/mL (≈ 24.3 µM)
COc1cccc(C(=O)NNc2nc3c(C)cccc3s2)c1 | 11.6 µg/mL (≈ 37.1 µM)
Cc1cc(C)c2nc(NNC(=O)c3cc(-c4cccs4)nc4ccccc34)sc2c1 | 24.6 µg/mL (≈ 57.2 µM)
CCOC(CNc1ncnc2c1cnn2-c1ccc(C)c(C)c1)OCC | 21.8 µg/mL (≈ 61.4 µM)
O=C1N/C(=N\N=C\c2ccccc2O)SC1Cc1cc(Cl)ccc1Cl (centres undefined) | 4.52 µg/mL (≈ 11.5 µM)
O=C(Nc1cccc(Cl)c1)c1cccc2nc3ccccc3nc12 | 4.6 µg/mL (≈ 13.8 µM)

Source: PubChem BioAssay AID2842 (Southern Research Institute, 2010)
